Patent publication US20250270200A1, “CTPS1 INHIBITORS AND USES THEREOF” (Nimbus Clotho, Inc., priority 2022, published 2025)
Where a name gives a salt, the structure may show the parent alone.

Molecular target: T1, human CTPS1 (Homo sapiens, UniProt P17812)
T1 sequence (P17812 1-591): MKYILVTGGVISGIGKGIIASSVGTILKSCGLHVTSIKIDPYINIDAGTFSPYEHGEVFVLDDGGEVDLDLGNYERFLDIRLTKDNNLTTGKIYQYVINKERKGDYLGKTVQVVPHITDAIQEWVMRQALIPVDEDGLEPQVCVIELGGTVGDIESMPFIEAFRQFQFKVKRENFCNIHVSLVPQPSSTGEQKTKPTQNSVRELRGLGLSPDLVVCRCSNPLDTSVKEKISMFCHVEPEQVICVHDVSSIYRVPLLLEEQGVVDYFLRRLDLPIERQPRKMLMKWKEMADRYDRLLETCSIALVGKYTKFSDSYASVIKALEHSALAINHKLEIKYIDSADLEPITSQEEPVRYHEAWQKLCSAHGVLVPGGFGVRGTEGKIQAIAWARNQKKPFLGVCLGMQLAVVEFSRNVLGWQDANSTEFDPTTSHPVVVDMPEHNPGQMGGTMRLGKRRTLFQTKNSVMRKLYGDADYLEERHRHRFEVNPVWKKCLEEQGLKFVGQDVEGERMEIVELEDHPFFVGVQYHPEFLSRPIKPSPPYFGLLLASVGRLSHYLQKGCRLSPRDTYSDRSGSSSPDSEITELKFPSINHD
Assay: ADP-Glo assay, human CTPS1 enzyme inhibition
Type: biochemical
Conditions: wild-type human CTPS1, 25 nM enzyme; ADP-Glo; read-out: ADP-Glo_WT_hCTPS1—25 nM_IC50 (IC50)
How it was run: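 Full-length tagged human CTPS1 (25 nM) pre-incubated 10 min at 25° C with compound, then 10 min with ATP (120 μM) and UTP (160 μM); reaction started with L-glutamine (100 μM) and GTP (60 μM), 1% DMSO, in HEPES pH 7.4, 10 mM Mg2+, 5 mM KCl, 2 mM DTT. Run within linear phase at 25° C; ADP measured by ADP-Glo luminescence.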

SMILES | IC50 [µM]
CCOc1cncc(-c2cnc(C(=O)N[C@H](c3cc(NS(=O)(=O)C4CC4)ncn3)[C@@H]3CCOC3)s2)n1 [I-256, N-((S)-(6-(cyclopropanesulfonamido)pyrimidin-4-yl)((S)-tetrahydrofuran-3-yl)methyl)-5-(6-ethoxypyrazin-2-yl)thiazole-2-carboxamide] | 0.005 to 0.025
CCOc1ccn2ncc(-c3cnc(C(=O)NCc4cc(NS(=O)(=O)C5CC5)ccn4)s3)c2c1 [I-170, N-((4-(cyclopropanesulfonamido)pyridin-2-yl)methyl)-5-(5-ethoxypyrazolo[1,5-a]pyridin-3-yl)thiazole-2-carboxamide] | > 0.1
CCOc1cncc(-c2cnc(C(=O)N[C@H](c3cc(NS(=O)(=O)C4CC4)ccn3)[C@H](C)OC)s2)n1 (single isomer, unassigned) [I-47] | 0.005 to 0.025
CCOc1cncc(-c2cnc(C(=O)N[C@H](CC(C)(C)N(C)C)c3cc(NS(=O)(=O)C4CC4)ccn3)s2)n1 [I-49, (R)-N-(1-(4-(cyclopropanesulfonamido)pyridin-2-yl)-3-(dimethylamino)-3-methylbutyl)-5-(6-ethoxypyrazin-2-yl)thiazole-2-carboxamide] | 0.05 to 0.1
CCOc1cncc(-c2cnc(C(=O)N[C@H](C[C@H]3CCCCN3C(C)C)c3cc(NS(=O)(=O)C4CC4)ccn3)s2)n1 (single isomer, unassigned) [I-27] | 0.005 to 0.025
O=C(N[C@@H](CN1CCCC1)c1cccc(NS(=O)(=O)C(F)F)c1)c1ncc(-c2cnn3ccc(Cl)cc23)s1 [I-221, (R)-5-(5-chloropyrazolo[1,5-a]pyridin-3-yl)-N-(1-(3-((difluoromethyl)sulfonamido)phenyl)-2-(pyrrolidin-1-yl)ethyl)thiazole-2-carboxamide] | 0.025 to 0.05
CCOc1cncc(-c2cnc(C(=O)N[C@H](c3cc(NS(=O)(=O)C4CC4)ccn3)[C@@H]3CCN(C4CC4)C3)s2)n1 [I-113, N-((S)-(4-(cyclopropanesulfonamido)pyridin-2-yl)((R)-1-cyclopropylpyrrolidin-3-yl)methyl)-5-(6-ethoxypyrazin-2-yl)thiazole-2-carboxamide] | 0.005 to 0.025
C[C@@H](O)[C@H](NC(=O)c1ncc(-c2cnn3ccc(Cl)cc23)s1)c1cc(NS(=O)(=O)C2CC2)ccn1 [I-271, 5-(5-chloropyrazolo[1,5-a]pyridin-3-yl)-N-((1R,2R)-1-(4-(cyclopropanesulfonamido)pyridin-2-yl)-2-hydroxypropyl)thiazole-2-carboxamide] | 0.005 to 0.025
CCOc1cncc(-c2cnc(C(=O)N[C@@H](c3cccc(NS(=O)(=O)C(F)F)c3)[C@H]3CCOC3)s2)n1 [I-190, N-((R)-(3-((difluoromethyl)sulfonamido)phenyl)((R)-tetrahydrofuran-3-yl)methyl)-5-(6-ethoxypyrazin-2-yl)thiazole-2-carboxamide] | 0.005 to 0.025
CCOc1cncc(-c2cnc(C(=O)N[C@@H](CN3CC[C@@]4(CCOC4)C3)c3cc(NS(=O)(=O)C4CC4)ccn3)s2)n1 [I-125, N-((S)-1-(4-(cyclopropanesulfonamido)pyridin-2-yl)-2-((R)-2-oxa-7-azaspiro[4.4]nonan-7-yl)ethyl)-5-(6-ethoxypyrazin-2-yl)thiazole-2-carboxamide] | 0.025 to 0.05
CCOc1cncc(-c2cnc(C(=O)N[C@@H](c3cc(NS(=O)(=O)C4CC4)ccn3)[C@@H](C)COC)s2)n1 [I-235, N-((1R,2R)-1-(4-(cyclopropanesulfonamido)pyridin-2-yl)-3-methoxy-2-methylpropyl)-5-(6-ethoxypyrazin-2-yl)thiazole-2-carboxamide] | 0.005 to 0.025
CCOc1cncc(-c2cnc(C(=O)N[C@H](COC)c3cccc(NS(=O)(=O)C(F)F)c3)s2)n1 [I-292, (S)-N-(1-(3-((difluoromethyl)sulfonamido)phenyl)-2-methoxyethyl)-5-(6-ethoxypyrazin-2-yl)thiazole-2-carboxamide] | 0.005 to 0.025
CCOc1cncc(-c2cnc(C(=O)N[C@H](CN3C[C@H]4CC[C@@H]3C4)c3cc(NS(=O)(=O)C4CC4)ccn3)s2)n1 [I-150, N-((R)-2-((1R,4S)-2-azabicyclo[2.2.1]heptan-2-yl)-1-(4-(cyclopropanesulfonamido)pyridin-2-yl)ethyl)-5-(6-ethoxypyrazin-2-yl)thiazole-2-carboxamide] | 0.005 to 0.025
CCOc1cncc(-c2cnc(C(=O)N[C@@H](c3cc(NS(=O)(=O)C4CC4)ncn3)[C@H]3CCOC3)s2)n1 [I-258, N-((R)-(6-(cyclopropanesulfonamido)pyrimidin-4-yl)((R)-tetrahydrofuran-3-yl)methyl)-5-(6-ethoxypyrazin-2-yl)thiazole-2-carboxamide] | 0.005 to 0.025
CCOc1cncc(-c2cnc(C(=O)N[C@@H](c3cc(NS(=O)(=O)C4CC4)ccn3)[C@H]3CCCO3)s2)n1 [I-62, N-((S)-(4-(cyclopropanesulfonamido)pyridin-2-yl)((R)-tetrahydrofuran-2-yl)methyl)-5-(6-ethoxypyrazin-2-yl)thiazole-2-carboxamide] | 0.005 to 0.025
CCOc1cncc(-c2cnc(C(=O)N[C@@H](COC)c3nccc(NS(=O)(=O)C4CC4)n3)s2)n1 [I-98, (R)-N-(1-(4-(cyclopropanesulfonamido)pyrimidin-2-yl)-2-methoxyethyl)-5-(6-ethoxypyrazin-2-yl)thiazole-2-carboxamide] | 0.025 to 0.05
CCOc1cncc(-c2cnc(C(=O)N[C@@H](c3cc(NS(=O)(=O)C4CC4)ccn3)[C@@H]3CCCN3C)s2)n1 [I-117, N-((R)-(4-(cyclopropanesulfonamido)pyridin-2-yl)((S)-1-methylpyrrolidin-2-yl)methyl)-5-(6-ethoxypyrazin-2-yl)thiazole-2-carboxamide] | 0.005 to 0.025
CCOc1cncc(-c2cnc(C(=O)N[C@@H](CN3CC[C@@](C)(O)C3)c3cccc(NS(=O)(=O)C(F)F)c3)s2)n1 [I-206, N-((R)-1-(3-((difluoromethyl)sulfonamido)phenyl)-2-((R)-3-hydroxy-3-methylpyrrolidin-1-yl)ethyl)-5-(6-ethoxypyrazin-2-yl)thiazole-2-carboxamide] | 0.005 to 0.025
CCOc1cncc(-c2cnc(C(=O)N[C@H](CN3CCN(C)C(=O)C3)c3cc(NS(=O)(=O)C4CC4)ccn3)s2)n1 [I-148, (R)-N-(1-(4-(cyclopropanesulfonamido)pyridin-2-yl)-2-(4-methyl-3-oxopiperazin-1-yl)ethyl)-5-(6-ethoxypyrazin-2-yl)thiazole-2-carboxamide] | 0.005 to 0.025
CCOc1cncc(-c2cnc(C(=O)N[C@@H](c3cccc(NS(=O)(=O)C(F)F)c3)[C@@H]3COCCO3)s2)n1 [I-200, N-((S)-(3-((difluoromethyl)sulfonamido)phenyl)((R)-1,4-dioxan-2-yl)methyl)-5-(6-ethoxypyrazin-2-yl)thiazole-2-carboxamide] | 0.005 to 0.025
CCOc1cncc(-c2cnc(C(=O)N[C@H](c3cccc(NS(=O)(=O)C(F)F)c3)[C@@H]3CCOC3)s2)n1 [I-188, N-((S)-(3-((difluoromethyl)sulfonamido)phenyl)((S)-tetrahydrofuran-3-yl)methyl)-5-(6-ethoxypyrazin-2-yl)thiazole-2-carboxamide] | 0.005 to 0.025
CCOc1cncc(-c2cnc(C(=O)N[C@@H](c3cc(NS(=O)(=O)C4CC4)ccn3)[C@@H]3CC(=O)N(C)C3)s2)n1 [I-121, N-((R)-(4-(cyclopropanesulfonamido)pyridin-2-yl)((R)-1-methyl-5-oxopyrrolidin-3-yl)methyl)-5-(6-ethoxypyrazin-2-yl)thiazole-2-carboxamide] | 0.005 to 0.025
O=C(N[C@@H](c1cc(NS(=O)(=O)C2CC2)ccn1)[C@@H]1CCOC1)c1ncc(-c2cnn3ccc(Cl)cc23)s1 (single isomer, unassigned) [I-24] | 0.005 to 0.025
O=C(NC(CCN1CCCCC1)c1cc(NS(=O)(=O)C2CC2)ccn1)c1ncc(-c2cnn3ccc(Cl)cc23)s1 (stereo not shown) [I-8, 5-(5-chloropyrazolo[1,5-a]pyridin-3-yl)-N-(1-(4-(cyclopropanesulfonamido)pyridin-2-yl)-3-(piperidin-1-yl)propyl)thiazole-2-carboxamide] | 0.025 to 0.05
CCOc1cncc(-c2cnc(C(=O)N[C@@H](CN3CCOCC3)c3cc(NS(=O)(=O)C4CC4)ncn3)s2)n1 (single isomer, unassigned) [I-247] | 0.005 to 0.025
CCOc1cncc(-c2cnc(C(=O)N[C@@H](CN3C[C@@H]4CC[C@H]3CO4)c3cc(NS(=O)(=O)C4CC4)ccn3)s2)n1 [I-135, N-((S)-2-((1S,4S)-2-oxa-5-azabicyclo[2.2.2]octan-5-yl)-1-(4-(cyclopropanesulfonamido)pyridin-2-yl)ethyl)-5-(6-ethoxypyrazin-2-yl)thiazole-2-carboxamide] | ≤ 0.005
CCOc1cncc(-c2cnc(C(=O)N[C@H](c3cc(NS(=O)(=O)C4CC4)ncn3)C3CCOCC3)s2)n1 (single isomer, unassigned) [I-254] | 0.005 to 0.025
CN(C)C[C@H](NC(=O)c1ncc(-c2cnn3ccc(Cl)cc23)s1)c1cc(NS(=O)(=O)C2CC2)ccn1 [I-164, (S)-5-(5-chloropyrazolo[1,5-a]pyridin-3-yl)-N-(1-(4-(cyclopropanesulfonamido)pyridin-2-yl)-2-(dimethylamino)ethyl)thiazole-2-carboxamide, formic acid salt] | 0.05 to 0.1
